Source: patent US20090124502A1, “USE OF SULFURYL FLUORIDE AS A SPROUT […]” (Dow AgroSciences LLC, priority 2007, published 2009)

Key:
Format in all cases: in vivo, Solanum tuberosum
Russet Burbank potatoes = assay: Sulfuryl fluoride fumigation of stored Russet Burbank potatoes, physical and sprouting observations (Example 2)
Description: A second study was conducted using stored Russet Burbank potatoes. These potatoes were exposed to 3 treatments (O g-h/m3, 300 g-h/m^3, and 500 g-h/m^3) in a Styrofoam™ fumigation chamber. The exposure time was 12 hrs at ambient temperature of approximately 25° C. and relative humidity of 50 percent. The treatments were replicated 3 times. Each replicate had approximately 10 lbs of potatoes.

organic Russet potatoes = assay: Sulfuryl fluoride fumigation of stored organic Russet potatoes, physical and sprouting observations (Example 3); design: Avg Length of sprouts: unit not given here
Description: A third study was conducted using stored organic Russet potatoes. These potatoes were exposed to […] (0 g-h/m3, 50 g-h/m^3, 100 g-h/m^3 150 g-h/m^3 and 200 g-h/m^3) in a Styrofoam™ fumigation chamber. The exposure time was 12 hrs at ambient temperature of approximately 25° C. and relative humidity of 50 percent. The treatments were replicated 3 times. Each replicate had approximately 5 lbs of potatoes.

Red potatoes = assay: Sulfuryl fluoride fumigation of Red potatoes, physical and sprouting observations (Example 1); design: key to Tuber Firmness: 1 = firm; 2 = slightly spongy; 3 = very spongy, probably rotten
Description: (§1) Russet and red potatoes were purchased from an organic retail store and used for this study. These potatoes were exposed to 4 treatments (0 gram-hour/cubic meter [g-h/m^3], 500 g-h/m^3, 1000 g-h/m^3 and 1500 g-h/m^3) in a Styrofoam™ fumigation chamber. The exposure time was 12 hrs at ambient temperature of approximately 25° C. and relative humidity of 50 percent.

Russet potatoes = assay: Sulfuryl fluoride fumigation of Russet potatoes, physical and sprouting observations (Example 1); design: key to Tuber Firmness: 1 = firm; 2 = slightly spongy; 3 = very spongy, probably rotten
Description: as §1

[1] = 300 g-h/m^3, 6 days after exposure, mean of 3 plots
[2] = 300 g-h/m^3, 6 days after exposure, single plots (replicates)
[3] = 300 g-h/m^3, 9 days after exposure, mean
[4] = 500 g-h/m^3, 6 days after exposure, mean of 3 plots
[5] = 500 g-h/m^3, 6 days after exposure, single plots (replicates)
[6] = 500 g-h/m^3, 9 days after exposure, mean
[7] = 50 g-h/m^3, 7 days after exposure
[8] = 50 g-h/m^3, 21 days after exposure
[9] = 50 g-h/m^3, 31 days after exposure
[10] = 100 g-h/m^3, 7 days after exposure
[11] = 100 g-h/m^3, 21 days after exposure
[12] = 100 g-h/m^3, 31 days after exposure
[13] = 150 g-h/m^3, 7 days after exposure
[14] = 150 g-h/m^3, 21 days after exposure
[15] = 150 g-h/m^3, 31 days after exposure
[16] = 200 g-h/m^3, 7 days after exposure
[17] = 200 g-h/m^3, 21 days after exposure
[18] = 200 g-h/m^3, 31 days after exposure
[19] = 500 g-h/m^3, 12 hrs exposure, 1 week after exposure
[20] = 500 g-h/m^3, 12 hrs exposure, 2 weeks after exposure
[21] = 500 g-h/m^3, 12 hrs exposure, 3 weeks after exposure
[22] = 500 g-h/m^3, 12 hrs exposure, 10 weeks after exposure
[23] = 1000 g-h/m^3, 12 hrs exposure, 1 week after exposure
[24] = 1000 g-h/m^3, 12 hrs exposure, 2 weeks after exposure
[25] = 1500 g-h/m^3, 12 hrs exposure, 1 week after exposure
[26] = 1500 g-h/m^3, 12 hrs exposure, 2 weeks after exposure

Structure (SMILES): O=S(=O)(F)F [sulfuryl fluoride]
- Avg Length of sprouts (Russet Burbank potatoes; [1]): 0.0 b MM
- Tuber Firmness (Russet Burbank potatoes; [1]): 0.0 a 0-3
- Avg Length of sprouts (Russet Burbank potatoes; [2]): 0.0 MM
- Avg. Number of sprouts (Russet Burbank potatoes; [2]): 0.00
- Tuber Firmness (Russet Burbank potatoes; [2]): 0.0 0-3
- Number of Sprouts (Russet Burbank potatoes; 300 g-h/m^3, 6 days after exposure, single plots (replicates), 10 pounds): 0.0
- Avg Length of sprouts (Russet Burbank potatoes; [3]): 0.0 b
- Avg. Number of sprouts (Russet Burbank potatoes; [3]): 0.00 b
- Number of Sprouts (Russet Burbank potatoes; [3]): 0.0 b
- sprout growth (Russet Burbank potatoes; 300 g-h/m^3 and 500 g-h/m^3 treatments, Table 10 and 11 (6 and 9 days after exposure)): stopped sprouts from growing
- Avg Length of sprouts (Russet Burbank potatoes; [4]): 0.0 b MM
- Tuber Firmness (Russet Burbank potatoes; [4]): 0.0 a 0-3
- Avg Length of sprouts (Russet Burbank potatoes; [5]): 0.0 MM
- Avg. Number of sprouts (Russet Burbank potatoes; [5]): 0.00
- Tuber Firmness (Russet Burbank potatoes; [5]): 0.0 0-3
- Number of Sprouts (Russet Burbank potatoes; 500 g-h/m^3, 6 days after exposure, single plots (replicates), 10 pounds): 0.0
- Avg Length of sprouts (Russet Burbank potatoes; [6]): 0.0 b
- Avg. Number of sprouts (Russet Burbank potatoes; [6]): 0.00 b
- Number of Sprouts (Russet Burbank potatoes; [6]): 0.0 b
- sprout growth (organic Russet potatoes; 50 g-h/m^3, 21 DAT, compared to 150 and 200 g-h/m^3 treatments): significant sprout growth
- Avg Length of sprouts (organic Russet potatoes; [7]): 1.1
- Avg. Number of sprouts (organic Russet potatoes; [7]): 3.00
- Number of Sprouts (organic Russet potatoes; [7]): 60.0
- Tuber Firmness (organic Russet potatoes; [7]): 0.0 MM
- Avg Length of sprouts (organic Russet potatoes; [8]): 9.1
- Avg. Number of sprouts (organic Russet potatoes; [8]): 6.3
- Number of Sprouts (organic Russet potatoes; [8]): 126.0
- Tuber Firmness (organic Russet potatoes; [8]): 1.0 MM
- Avg Length of sprouts (organic Russet potatoes; [9]): 21.1
- Avg. Number of sprouts (organic Russet potatoes; [9]): 6.3
- Number of Sprouts (organic Russet potatoes; [9]): 126.0
- Tuber Firmness (organic Russet potatoes; [9]): 2.0 MM
- sprout inhibition (organic Russet potatoes; 50 to 200 g-h/m^3, Table 13 (21 days after exposure)): dose dependent
- sprout growth (organic Russet potatoes; 100 g-h/m^3, 21 DAT, compared to 150 and 200 g-h/m^3 treatments): significant sprout growth
- Avg Length of sprouts (organic Russet potatoes; [10]): 1.0
- Avg. Number of sprouts (organic Russet potatoes; [10]): 1.9
- Number of Sprouts (organic Russet potatoes; [10]): 52.0
- Tuber Firmness (organic Russet potatoes; [10]): 0.0 MM
- Avg Length of sprouts (organic Russet potatoes; [11]): 6.5
- Avg. Number of sprouts (organic Russet potatoes; [11]): 2.4
- Number of Sprouts (organic Russet potatoes; [11]): 88.0
- Tuber Firmness (organic Russet potatoes; [11]): 1.0 MM
- Avg Length of sprouts (organic Russet potatoes; [12]): 16.5
- Avg. Number of sprouts (organic Russet potatoes; [12]): 2.4
- Number of Sprouts (organic Russet potatoes; [12]): 88.0
- Tuber Firmness (organic Russet potatoes; [12]): 1.0 MM
- sprout growth (organic Russet potatoes; 150 g-h/m^3, 7 DAT): slight sprout growth
- sprout growth (organic Russet potatoes; 150 g-h/m^3, 21 DAT observations): did not grow further
- Avg Length of sprouts (organic Russet potatoes; [13]): 0.2
- Avg. Number of sprouts (organic Russet potatoes; [13]): 0.3
- Number of Sprouts (organic Russet potatoes; [13]): 17.0
- Tuber Firmness (organic Russet potatoes; [13]): 0.0 MM
- Avg Length of sprouts (organic Russet potatoes; [14]): 0.2
- Avg. Number of sprouts (organic Russet potatoes; [14]): 0.3
- Number of Sprouts (organic Russet potatoes; [14]): 17.0
- Tuber Firmness (organic Russet potatoes; [14]): 0.0 MM
- Avg Length of sprouts (organic Russet potatoes; [15]): 1.2
- Avg. Number of sprouts (organic Russet potatoes; [15]): 0.3
- Number of Sprouts (organic Russet potatoes; [15]): 17.0
- Tuber Firmness (organic Russet potatoes; [15]): 0.0 MM
- Avg Length of sprouts (organic Russet potatoes; [16]): 0
- Avg. Number of sprouts (organic Russet potatoes; [16]): 0
- Number of Sprouts (organic Russet potatoes; [16]): 0
- Tuber Firmness (organic Russet potatoes; [16]): 0.0 MM
- Avg Length of sprouts (organic Russet potatoes; [17]): 0
- Avg. Number of sprouts (organic Russet potatoes; [17]): 0
- Number of Sprouts (organic Russet potatoes; [17]): 0
- Tuber Firmness (organic Russet potatoes; [17]): 0.0 MM
- Avg Length of sprouts (organic Russet potatoes; [18]): 0
- Avg. Number of sprouts (organic Russet potatoes; [18]): 0
- Number of Sprouts (organic Russet potatoes; [18]): 0
- Tuber Firmness (organic Russet potatoes; [18]): 0.0 MM
- phyto-toxic effects (organic Russet potatoes; 200 g-h/m^3, after 31 days): without any phyto-toxic effects
- sprout inhibition (organic Russet potatoes; 200 g-h/m^3, after 31 days): best sprout inhibition
- peel testing, black spot (organic Russet potatoes; all treatments of the study (50 to 200 g-h/m^3)): none of the treatments used in this study produced the black spot
- Average length of sprout (Red potatoes; [19]): 0 mm
- Avg. No. of Sprouts (Red potatoes; [19]): 0
- Tuber Firmness (Red potatoes; [19]): 1
- Average length of sprout (Red potatoes; [20]): 0 mm
- Avg. No. of Sprouts (Red potatoes; [20]): 0
- Tuber Firmness (Red potatoes; [20]): 1
- Avg. No. of Sprouts (Red potatoes; [21]): 1.5
- Tuber Firmness (Red potatoes; [21]): 1
- Avg. No. of Sprouts (Red potatoes; [22]): 1.5
- Tuber Firmness (Red potatoes; [22]): 1
- Average length of sprout (Red potatoes; [23]): 0 mm
- Avg. No. of Sprouts (Red potatoes; [23]): 0
- Tuber Firmness (Red potatoes; [23]): 2
- Average length of sprout (Red potatoes; [24]): 0 mm
- Avg. No. of Sprouts (Red potatoes; [24]): 0
- Tuber Firmness (Red potatoes; [24]): 2
- Average length of sprout (Red potatoes; [25]): 0 mm
- Avg. No. of Sprouts (Red potatoes; [25]): 0
- Tuber Firmness (Red potatoes; [25]): 3
- Average length of sprout (Red potatoes; [26]): 0 mm
- Avg. No. of Sprouts (Red potatoes; [26]): 0
- Tuber Firmness (Red potatoes; [26]): 3
- Average length of sprout (Russet potatoes; [19]): <1 mm
- Avg. No. of Sprouts (Russet potatoes; [19]): 1.4
- Tuber Firmness (Russet potatoes; [19]): 1
- Average length of sprout (Russet potatoes; [20]): <1 mm
- Avg. No. of Sprouts (Russet potatoes; [20]): 1.4
- Tuber Firmness (Russet potatoes; [20]): 1
- Average length of sprout (Russet potatoes; [21]): <3 mm
- Avg. No. of Sprouts (Russet potatoes; [21]): 1.4
- Tuber Firmness (Russet potatoes; [21]): 2
- Average length of sprout (Russet potatoes; [23]): <1 mm
- Avg. No. of Sprouts (Russet potatoes; [23]): 0.3
- Tuber Firmness (Russet potatoes; [23]): 1
- Average length of sprout (Russet potatoes; [24]): <1 mm
- Avg. No. of Sprouts (Russet potatoes; [24]): 0.3
- Tuber Firmness (Russet potatoes; [24]): 1
- Average length of sprout (Russet potatoes; [25]): 0 mm
- Avg. No. of Sprouts (Russet potatoes; [25]): 0
- Tuber Firmness (Russet potatoes; [25]): 3
- Average length of sprout (Russet potatoes; [26]): 0 mm
- Avg. No. of Sprouts (Russet potatoes; [26]): 0
- Tuber Firmness (Russet potatoes; [26]): 3
